{
  "source": "paper PMC10349806",
  "about": "(Nature Communications, 2023)",
  "key": {"PfCRT variant E207I": {"test_system": "PfCRT variant E207I", "experiment": "CQ uptake assay, oocytes expressing E207I", "type": "cell-based, Plasmodium falciparum", "description": "(§1) Site-directed mutagenesis of PfCRT^Dd2 was performed as described using the megaprimer method with overlap extension[21],[54]. The primer pairs used are listed in Supplementary Table 6. Please note that a codon-optimized and oocyte-adapted version of PfCRT^Dd2 was used[22] (Supplementary Fig. 16). The resulting DNA fragment was cloned into the SP64T expression vector and verified by sequencing.\n(§2) Oocytes were obtained as described previously. Briefly, adult (>2 years old) female X. laevis frogs (NASCO) were anesthetized in a cooled solution of ethyl 3-amino benzoate methanesulfonate (0.1%, w/v), followed by a surgical removal of parts of the ovary. The ovary lobes were carefully dissected and small pieces of oocytes were incubated in Ca^2+-free ND96 buffer (96 mM NaCl, 2 mM KCl, 1 mM MgCl2 buffered with 5 mM HEPES/NaOH, pH 7.5) supplemented with collagenase D (0.1%, w/v; Roche), BSA (0.5%, w/v), and 9 mm Na2HPO4 at 18 °C for 14-16 h while gentle shaking. After incubation, the oocytes were carefully washed several times with ND96 buffer (96 mM NaCl, 2 mM KCl, 1.8 mM CaCl2, 1 mM MgCl2 buffered with 5 mM HEPES/NaOH, pH 7.5) supplemented with 100 mg l^−1 gentamycin). Defolliculated and healthy-looking stage V-VI oocytes were manually selected for RNA microinjection. The RNA was generated as following: The codon-optimized sequences of PfCRT variants were cloned into the pSP64T expression vector. After vector linearization using the restriction endonucleases BamHI or SalI (New England Biolabs), transcription was performed using the in vitro SP6 mMessage mMachine Kit (Ambion)[34]. The obtained RNA was kept at −80 °C and diluted with nuclease-free water to a concentration of 0.6 μg μl^−1. Precision-bore glass capillary tubes (3.5-inch glass capillaries; Drummond Scientific Co.) were pulled on a vertical puller (P-87 Flaming/Brown micropipette puller, Sutter Instrument Co.), graduated, and placed on a microinjector (Nanoject II Auto-Nanoliter Injector, Drummond Scientific Co.). 50 nl of nuclease-free water alone (control oocytes) or 50 nl of 0.6 μg μl^−1 RNA were injected under stereomicroscopic control. Injected oocytes were incubated for 46–72 h at 18 °C with twice-daily buffer changes before usage in experiments.\nDrug uptake assays were performed as described previously[21],[22],[24],[34]. […] The direction of radio-labeled drug transport is here from the mostly acidic extracellular solution (pH 4.5 or 6.0, as indicated) into the oocyte cytosol (pH ∼ 7.2), which corresponds to the efflux of drug from the acidic digestive vacuole (pH 5.2) into the parasite cytoplasm (pH 7.2). The topology of PfCRT in the oolemma is such that both the N- and C-terminus face the extracellular milieu[3],[22]. In the parasite, the N- and C-terminus face the lumen of the digestive vacuole. […] For determination of the amount of drug uptake for each oocyte, the reaction medium was removed and the oocytes were washed three times with 2 ml of ice-cold ND96 buffer. Each oocyte was individually transferred to a scintillation vial containing 5% sodium dodecyl sulfate (200 μl) for lysis. […] Oocytes that were injected with water instead of RNA were analyzed in parallel, representing the uptake of a drug by diffusion and/or endogenous permeation pathways. The resulting value represents the “background“ level of drug accumulation in oocytes (in-depth discussion in[22]). The specific PfCRT-mediated uptake was determined by subtracting the corresponding background value measured in water-injected oocytes from that of PfCRT-expressing oocytes. In all cases, at least three separate experiments were performed on oocytes from different frogs (biological replicate), and for each condition in an experiment, measurements were made from 10 oocytes per treatment. For pH 5.5, 6.0, and 6.5, ND96 was buffered with 5 mM MES/Tris base."}, "[1]": {"biological_target": "T1, PfCRT variant CD2 (D24A, D57A, Y179A, F235A, D241A, E406A, D419A) (Plasmodium falciparum, UniProt Q9N623, A220S/D241A/D24A/D419A/D57A/E406A/F235A/I356T/K76T/M74I/N326S/N75E/Q271E/R371I/Y179A)", "T1 sequence (Q9N623 1-424 D24A/D57A/M74I/N75E/K76T/Y179A/A220S/F235A/D241A/Q271E/N326S/I356T/R371I/E406A/D419A)": "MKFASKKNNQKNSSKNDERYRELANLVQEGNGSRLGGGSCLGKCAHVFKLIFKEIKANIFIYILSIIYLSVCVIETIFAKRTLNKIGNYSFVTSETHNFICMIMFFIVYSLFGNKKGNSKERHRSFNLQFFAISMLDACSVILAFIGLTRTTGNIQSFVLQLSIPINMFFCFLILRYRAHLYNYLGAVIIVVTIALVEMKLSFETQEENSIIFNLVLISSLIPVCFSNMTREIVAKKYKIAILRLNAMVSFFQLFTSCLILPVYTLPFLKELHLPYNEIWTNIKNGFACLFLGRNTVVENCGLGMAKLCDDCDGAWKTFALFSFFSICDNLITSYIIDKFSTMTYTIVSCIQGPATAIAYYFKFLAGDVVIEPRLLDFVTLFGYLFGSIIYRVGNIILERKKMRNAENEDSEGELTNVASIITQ", "experiment": "CQ uptake assay, oocytes expressing CD2", "type": "cell-based", "description": "as §1, §2\nDrug uptake assays were performed as described previously[21],[22],[24],[34]. […] The direction of radio-labeled drug transport is here from the mostly acidic extracellular solution (pH 4.5 or 6.0, as indicated) into the oocyte cytosol (pH ∼ 7.2), which corresponds to the efflux of drug from the acidic digestive vacuole (pH 5.2) into the parasite cytoplasm (pH 7.2). The topology of PfCRT in the oolemma is such that both the N- and C-terminus face the extracellular milieu[3],[22]. In the parasite, the N- and C-terminus face the lumen of the digestive vacuole. CQ uptake kinetics were performed by incubating oocytes in ND96 buffer adjusted to a pH of 4.5, 5.0, 5.5, or 6.0 and supplemented with 50 nM [^3H]CQ and one of 7 different CQ concentrations (10 µM, 50 µM, 100 µM, 200 µM, 300 µM, 400 µM, 500 µM CQ). The reaction was stopped at the 60 min time point, which is in the linear uptake range[22],[34] (Supplementary Fig. 17). For determination of the amount of drug uptake for each oocyte, the reaction medium was removed and the oocytes were washed three times with 2 ml of ice-cold ND96 buffer. Each oocyte was individually transferred to a scintillation vial containing 5% sodium dodecyl sulfate (200 μl) for lysis. The radioactivity of each sample was measured using a liquid scintillation analyzer Tri-Carb 4910 TR (PerkinElmer). Oocytes that were injected with water instead of RNA were analyzed in parallel, representing the uptake of a drug by diffusion and/or endogenous permeation pathways. The resulting value represents the “background“ level of drug accumulation in oocytes (in-depth discussion in[22]). […]"}, "[2]": {"details": "E207I, 50 µM CQ, 1 h, mean ± SEM"}},
  "note": "Where “and” joins values, the source holds several entries; their conditions need not be identical. Identical values can stand only once.",
  "data": [
    {"smiles": "CCN(CC)CCCC(C)Nc1ccnc2cc(Cl)ccc12", "note": "(stereo not drawn) [CQ, chloroquine]", "values": [
      {"measurement": "Activity at pH 4.5", "setting": "PfCRT variant E207I; [2]", "value": "2.05 ± 0.22", "unit": "pmol h-1 oocyte-1"},
      {"measurement": "Activity at pH 6.0", "setting": "PfCRT variant E207I; [2]", "value": "2.15 ± 0.11", "unit": "pmol h-1 oocyte-1"},
      {"measurement": "R-value", "setting": "PfCRT variant E207I; E207I, CQ transport at pH 4.5 / pH 6.0", "value": "0.95 ± 0.01"},
      {"measurement": "E207I transport activity pH 4.5", "setting": "PfCRT variant E207I; pH 4.5, individual replicates, Fig 6b", "value": "2.06 pmol oocyte-1 h-1 and 2.31 pmol oocyte-1 h-1"},
      {"measurement": "E207I transport activity pH 6.0", "setting": "PfCRT variant E207I; pH 6.0, individual replicates, Fig 6b", "value": "2.16 pmol oocyte-1 h-1 and 1.90 pmol oocyte-1 h-1 and 2.38 pmol oocyte-1 h-1"},
      {"measurement": "E207I R-value", "setting": "PfCRT variant E207I; ratio of activity pH 4.5 / pH 6.0", "value": "0.95 and 0.93 and 0.97"},
      {"measurement": "Activity at pH 4.5", "setting": "[1]; CD2, 50 µM CQ, 1 h, mean ± SEM", "value": "1.26 ± 0.05", "unit": "pmol h-1 oocyte-1"},
      {"measurement": "Activity at pH 6.0", "setting": "[1]; CD2, 50 µM CQ, 1 h, mean ± SEM", "value": "2.31 ± 0.23", "unit": "pmol h-1 oocyte-1"},
      {"measurement": "R-value", "setting": "[1]; CD2, CQ transport at pH 4.5 / pH 6.0", "value": "0.56 ± 0.05"},
      {"measurement": "CD2 transport activity pH 4.5", "setting": "[1]; pH 4.5, single replicates, Fig 1d left", "value": "1.18 pmol oocyte-1 h-1 and 1.21 pmol oocyte-1 h-1 and 1.38 pmol oocyte-1 h-1"},
      {"measurement": "CD2 R-value", "setting": "[1]; pH 4.5 vs pH 6.0, Fig 1d left", "value": "0.68 and 0.46 and 0.54"},
      {"measurement": "CD2 transport activity pH 6.0", "setting": "[1]; pH 6.0, single replicates, Fig 1d left", "value": "1.74 pmol oocyte-1 h-1 and 2.62 pmol oocyte-1 h-1 and 2.56 pmol oocyte-1 h-1"}
    ]}
  ]
}
